Measurements as given in patent publication US20180369426A1, “COMPOSITIONS COMPRISING FLUORESCENT DYES ASSOCIATED WITH VIRAL COMPONENTS FOR NERVE IMAGING” (priority 2008, published 2018).

System: footpad nerves
Assay: Mouse footpad injection, ICG fluorescence imaging of nerves (Example 3)
Assay type: in vivo
Details: 10 μL into footpad, imaged 2 hours after injection, back dissected (FIG. 3A)
Description: Example 3 is a comparison of imaging with a fluorescent dye alone versus a fluorescent dye bound to the virus. Unless otherwise specified, all images are digital images obtained from a CCD camera.
A mouse ([…]) was briefly anesthetized by halothane inhalation. The right footpad of the mouse was injected with 10 μL of ICG, phosphate buffered saline (PBS) and a virus mutant, HSV-2 ΔRR (“ICG/PBS/HSV-2 ΔRR mixture”). The left footpad was injected with 10 μl of ICG/PBS mixture as a control. The same concentration of ICG was present in both mixtures.
2 hours after footpad injections, the mouse was anesthetized and then euthanized with interperitoneal injection of sodium pentobarbital. ICG fluorescence images were acquired first of the intact mouse and then at various stages of dissection.

Structure (SMILES): CC1(C)C(/C=C/C=C/C=C/C=C2\N(CCCCS(=O)(=O)O)c3ccc4ccccc4c3C2(C)C)=[N+](CCCCS(=O)(=O)[O-])c2ccc3ccccc3c21 [ICG, indocyanine green]
- extent of fluorescence after footpad injection: limited to the left foot itself
